Values quoted from earlier work in patent US8314091B2, “N-benzyl,N'-arylcarbonylpiperazine derivatives” (MSD OSS B.V., priority 2007, dated 2012).

Columns and labels:
[1] = test system: vascular smooth muscle cell proliferation and neointima formation; settings: following balloon injury, in vitro and in vivo
[2] = test system: β-amyloid; settings: in vivo
[3] = test system: tumours in an animal model of prostate cancer

O=S(=O)(c1ccccc1)N(CC(F)(F)F)c1ccc(C(O)(C(F)(F)F)C(F)(F)F)cc1 [Example T0901317]
effect on vascular smooth muscle cell proliferation and neointima formation [1]: inhibit vascular smooth muscle cell proliferation and neointima formation
deposition of β-amyloid [2]: lower deposition of β-amyloid
memory [2]: improve memory
effect on progression of tumours [3]: delayed progression of tumours
